One data set deals with A549 cells. In words: MTT cytotoxicity assay, A549. Conditions: for IC50: Homo sapiens, A549, 48 h, MTT, drug exposure 48 h, mean ± SD (n = 3), read-out: Cytotoxic activity (IC50) A549. The data set is classed as cell-based, human. The protocol:
(§1) Cytotoxicity of the podophyllum derivatives were determined by reading the absorbance at 492 nm on a multiplate reader (Thermo Fisher Scientific, Multiskan MK3). Cell cycle analysis and apoptosis analysis were analyzed by flow cytometry (Accuri C6, BD). Immunofluorescence images were recorded using laser scanning microscope (Perkin-Elmer & Olympus, UltraView VoX & Ix81). The gel for the decatenation of kDNA by Topoisomerase II study was photographed with UV illumination, Tanon 1600 (Tanon Science & Technology Co., Ltd., Shanghai). The nitrocellulose blotting membrane for western blot analysis was visualized using X-ray film processor and X-ray film, Fujifilm SUPER RX-N-C.
(§2) Cytotoxicity assay was performed on human lung adenocarcinoma epithelial cell line (A549), henrietta lacks strain of cancer cells (HeLa), human gastric carcinoma cell line (BGC 823), and normal human hepatocyte cell line (HL-7702). Cells (3500–13,000) in a 100 μL culture medium per well were seeded into 96-well microtest plates (Falcon, CA). A549 cell lines, HeLa cell lines and HL-7702 cell lines were cultured in DMEM supplemented with 10% CS, 100 mg/L penicillin G, 100 mg/L streptomycin. BGC 823 cell lines were cultured in RPMI medium 1640 supplemented with 10% CS, 100 mg/L penicillin G, and 100 mg/L streptomycin. The cells were incubated at 37 °C, in a humidified atmosphere with 5% CO2 for 48 h. For all cell lines, the microculture tetrazolium [3-(4, 5-dimethylthiazol-2-yl)-2, 5-diphenyltetrazolium bromide, MTT; Sigma, St. Louis, MO] assay was performed to measure the cytotoxic effects. Drug stock solutions (the each drug concentration was 0.5, 1, 10, 20, 50, 100, 200, and 500 μM, respectively) were prepared in DMSO and the final solvent concentration was ≤ 2% DMSO (v/v), a concentration without effect on cell replication. Initial seeding densities varied among the cell lines to ensure a final absorbance reading in control (untreated) cultures in the range 0.6–0.8 A492 units. Drug exposure was for 2 days, and the IC50 value, the drug concentration that reduced the absorbance by 50%, was interpolated from dose-response data. Each test was performed in triplicate, and absorbance readings varied no more than 5%. Data presented as means ± standard deviation (SD). Statistical analyses were performed by the analysis of variance (ANOVA). All statistical analyses were performed using Origin version 8.0 ([…], OriginLab Corp., Northampton, MA, USA). Sigmoidal dose responses and non-linear regression analyses were undertaken to identify half-maximal concentrations for each of the drugs. To evaluate differences in IC50 concentrations, analysis of variance combined with Tukey’s multiple range test was used.

Another data set concerns BGC-823 cells. Nature of the data set: MTT cytotoxicity assay, BGC-823. It counts as cell-based, human. Conditions: for IC50: Homo sapiens, BGC-823, MTT, drug exposure 48 h, mean ± SD (n = 3), read-out: Cytotoxic activity (IC50) BGC-823. The protocol: as §1, §2
Background: Formazan colour is commonly taken as a measure of viable cells.

The subject of data set [1] is HeLa cells. Nature of the data set: MTT cytotoxicity assay, HeLa. The data set is classed as cell-based, human. Conditions: for IC50: Homo sapiens, HeLa, MTT, drug exposure 48 h, mean ± SD (n = 3), read-out: Cytotoxic activity (IC50) HeLa; for IC50 fold difference vs the corresponding C-NH compound (1N or 1′N): HeLa cells. The protocol: as §1, §2
The target of a further data set is T1, Topoisomerase II (Homo sapiens, UniProt P11388).
T1 construct: purchased TopoGEN Inc., USA 2000H
T1 sequence (P11388 whole entry): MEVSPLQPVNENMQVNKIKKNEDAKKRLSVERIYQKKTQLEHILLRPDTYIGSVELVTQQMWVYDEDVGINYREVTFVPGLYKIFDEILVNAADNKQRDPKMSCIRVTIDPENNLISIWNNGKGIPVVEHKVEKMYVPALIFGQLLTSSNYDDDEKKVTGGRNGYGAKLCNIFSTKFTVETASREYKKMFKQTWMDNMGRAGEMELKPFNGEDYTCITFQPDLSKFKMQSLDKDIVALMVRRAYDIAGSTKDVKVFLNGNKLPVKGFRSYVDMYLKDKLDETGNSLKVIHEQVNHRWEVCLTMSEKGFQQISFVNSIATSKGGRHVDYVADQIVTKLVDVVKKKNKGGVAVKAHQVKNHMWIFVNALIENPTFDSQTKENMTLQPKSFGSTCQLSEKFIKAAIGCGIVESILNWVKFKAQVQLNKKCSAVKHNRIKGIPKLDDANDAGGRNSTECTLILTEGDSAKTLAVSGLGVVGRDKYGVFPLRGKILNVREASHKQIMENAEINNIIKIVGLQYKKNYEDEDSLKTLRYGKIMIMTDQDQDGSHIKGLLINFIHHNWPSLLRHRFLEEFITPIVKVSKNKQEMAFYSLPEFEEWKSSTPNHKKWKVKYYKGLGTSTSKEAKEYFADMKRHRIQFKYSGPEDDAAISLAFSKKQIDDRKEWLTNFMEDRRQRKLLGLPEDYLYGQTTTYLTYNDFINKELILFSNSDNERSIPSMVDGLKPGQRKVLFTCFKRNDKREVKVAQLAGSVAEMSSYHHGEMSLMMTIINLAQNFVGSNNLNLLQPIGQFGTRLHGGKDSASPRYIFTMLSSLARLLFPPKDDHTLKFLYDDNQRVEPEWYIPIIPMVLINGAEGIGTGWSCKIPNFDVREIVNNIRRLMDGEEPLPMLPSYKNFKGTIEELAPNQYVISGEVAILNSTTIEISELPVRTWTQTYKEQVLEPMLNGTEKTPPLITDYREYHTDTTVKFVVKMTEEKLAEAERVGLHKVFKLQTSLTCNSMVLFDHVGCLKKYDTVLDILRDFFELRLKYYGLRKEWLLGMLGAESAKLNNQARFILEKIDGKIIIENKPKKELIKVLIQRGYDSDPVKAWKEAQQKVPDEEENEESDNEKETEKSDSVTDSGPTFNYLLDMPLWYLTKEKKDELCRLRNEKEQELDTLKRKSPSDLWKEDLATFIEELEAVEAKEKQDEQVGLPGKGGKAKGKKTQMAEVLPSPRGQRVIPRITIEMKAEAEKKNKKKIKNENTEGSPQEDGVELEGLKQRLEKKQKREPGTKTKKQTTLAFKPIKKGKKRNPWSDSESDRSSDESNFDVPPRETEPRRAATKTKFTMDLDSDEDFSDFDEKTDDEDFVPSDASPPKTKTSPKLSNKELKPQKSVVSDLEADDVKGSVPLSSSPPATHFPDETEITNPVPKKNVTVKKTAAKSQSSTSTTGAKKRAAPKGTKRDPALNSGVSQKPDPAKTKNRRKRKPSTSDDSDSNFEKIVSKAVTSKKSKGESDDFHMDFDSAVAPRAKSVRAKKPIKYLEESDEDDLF
In words: kDNA decatenation assay (Topoisomerase II inhibition). It counts as biochemical. Conditions: 100 μM. The protocol:
Kinetoplast DNA (kDNA) is a catenated network of mitochondrial DNA seen in trypanosomes.
Topoisomerase II activity was determined using kit (TopoGEN Inc., USA, Cat no. 2000H). […] Next, 4 U of topoisomerase II was added and the reaction was allowed to proceed for 60 min at 37 °C. The reaction was stopped by the addition of 1/10 volume of 1 mg/mL proteinase K and incubated for 15 min at 37 °C. The reaction was quenched via the addition of loading buffer (350 mM Tris, pH 6.8, 12% SDS, 0.012% bromophenol blue, 47% glycerol) and was then analyzed by electrophoresis on a 1% agarose gel in TBE buffer (89 mM Tris, 89 mM borate, and 2 mM Na-EDTA, pH 8.3) for 0.5 h at 140 V. The gel was visualized under UV illumination and photographed on an Alpha Imager.

Data set [2] has as its system HeLa cells. In words: Flow cytometry ROS (DCFH-DA) in HeLa cells. The data set is classed as cell-based, human. Conditions: for fluorescence intensity of ROS: 10 μM. The protocol:
(§3) For the cell cycle analysis, HeLa cells were treated with test compounds for 6, 12, 24 and 48 h at 37 °C in 6-well plates. Appropriate controls, in which cells were mock-treated by DMSO (<1%) for the same durations, were also set up. After being treated, all cells were trypsinized and collected, washed twice with PBS, added with 4 °C 70% ethanol (10 mL) and stored overnight at 4 °C. After this, cells were spun down at 1500 rpm for 5 min, washed once with PBS, and then treated with the mixture of 10 μL RNase (10 mg/mL), 50 μL propidium iodide (1 mg/mL) and 940 μL 1 × PBS, incubated at room temperature for 30 min in the dark. The stained cells were analyzed by flow cytometry. The result was analyzed with ModFit LT^TM 3.2 version software. For the apoptosis determination, after 6, 12, 24 and 48 h treatment with test compounds, HeLa cells were harvested, re-suspend in 500 μL annexin-binding buffer (10mM HEPES, 140 mM NaCl, 2.5 mM CaCl2, pH 7.4) at the cell density of about 10^6 cells/mL and stained with 5 μL annexin V and 5 μL propidium iodide for 15 min at room temperature. Changes in intracellular ROS levels were determined by measuring the oxidative conversion of cell permeable 2′,7′-dichlorofluorescein diacetate (DCFH-DA) to fluorescent di-chlorofluorescein (DCF) in flow cytometry (BD Accuri C6). Cells in 6-well culture dishes were incubated with DMEM for 6, 12, 24 and 48 h in the absence or presence of test compounds. The cells were washed with DMEM and incubated with DCFH-DA (10 μM) at 37 °C for 30 min. Then DCF fluorescence of 10,000 cells was detected by flow cytometry.
(In general: A flow cytometer gives signals particle by particle.)

The test system of data set [3] is HeLa cells. In words: Western blot of apoptosis pathway proteins in HeLa cells. It counts as cell-based, human. Conditions: 1 μM; for apoptotic pathways activated (BimEL, caspase-9, -8, -3, PARP): 12–48 h; for activation of ATM, ATR, caspase-8, 9 and 3: 0-48 h. As for the experimental part: Cells were lysed by adding 100 μL of RIPA buffer (50 mM Tris, pH 8.0, 150 mM NaCl, 1% TX-100, 0.5% sodium deoxycholate, 0.1% SDS) with 1% Protease Inhibitor PMSF. Each sample was then vigorously vortexed twice for 15 seconds, with a 30-minute incubation on ice following each agitation. The cellular debris was pelleted (12,000 rpm, 10 min), and then 100 μL of the protein suspension was transferred to fresh 0.5 mL tubes. The protein levels were quantified using a standard BCA (Thermo Scientific), after which the samples were diluted with deionized water to achieve equal protein concentrations for all samples. Prior to analyzing the samples, 5 × Loading buffer (350 mM Tris, pH 6.8, 12% SDS, 0.012% bromophenol blue, 47% glycerol) with 5% β-mercaptoethanol was added to each sample to achieve a final 1 × concentration, after which the samples were incubated at 95 °C for 10 minutes to denature the protein samples. 20–30 μg of protein was added to and run on a 15-well 4–20% Tris-HCl gel. The gel was equilibrated buffer (39 mM glycine, 48 mM, 0.037 g/L SDS, 200 mL/L methanol) for 5 minutes, then the protein were transferred to a PVDF membrane, which was incubated with 5% fetal bovine serum in TBST (20 mM Tris-HCl, pH 8.0, 150 mM, 0.5 mL/L Tween-20) for 1 h to block non-specific binding, and then probed for the primary antibody at a 1:1000 dilution with a blocking agent in TBST for 1 h at room temperature. The blot was washed with TBST, and then probed with a secondary antibody in TBST for 1 hour at room temperature. The blot was washed with TBST, and then The ECL detection kit (Millipore) was added to catalyze oxidation of luminol to emit chemiluminescence, and the membrane was visualized using X-ray film processor and X-ray film (Fujifilm SUPER RX-N-C).
(In general: Immunoblotting shows a protein as a band on a membrane.)

The test system of data set [4] is HeLa cells. Nature of the data set: Flow cytometry cell cycle analysis in HeLa cells. The data set is classed as cell-based, human. Conditions: for G2/M phase arrest: 0.1 μM; for percentage of G2/M phase cells: 1 μM; for percentage of G2/M phase cells / percentage of G2/M phase cells (maximum): 48 h; for percentage of G2/M phase cells (maximum): 5 μM. The protocol:
as §3

Data set [5] in a line: MTT cytotoxicity assay, normal hepatocyte HL-7702. The following applies: HL-7702 cells (normal hepatocyte cell line), normal human hepatocyte cell line, drug exposure 48 h, mean ± SD (n = 3), read-out: Cytotoxic activity (IC50) HL-7702. The data set is classed as cell-based. The protocol:
as §1, §2

[6] abbreviates: before the 48 h change (24 h induction).

This note sets out measurements from paper PMC4595834, “Comparison of carbon-sulfur and carbon-amine bond in therapeutic drug: 4β-S-aromatic heterocyclic podophyllum derivatives display antitumor activity” (Scientific Reports, 2015).

Structures are written as SMILES.

By IC50 is commonly meant the concentration needed to halve the response being measured. As to `COc1cc([C@@H]2c3cc4c(cc3[C@@H](Sc3ccccn3)[C@H]3COC(=O)[C@H]23)OCO4)cc(OC)c1O` [3′S, 4β-S-(pyridine-2)-4-deoxy-4′-demethyl-podophyllotoxin], the half-inhibitory concentration (IC50) is 3.85 ± 0.35 µM in the data set with A549 cells, 10.3 ± 0.34 µM in the data set on BGC-823 cells and 5.6 ± 0.39 µM in the data set with HeLa cells [1]. For the same compound, the “inhibition of catalytic activity of Topo II (kDNA decatenation)” value against Topoisomerase II was “nearly inhibited”.
With `COc1cc([C@@H]2c3cc4c(cc3[C@@H](Nc3nc[nH]n3)[C@H]3COC(=O)[C@H]23)OCO4)cc(OC)c1OC` [Compound 1N, 4β-NH-(1,2,4-trizole-3)-4-deoxy-podophyllotoxin], the “fluorescence intensity of ROS” value in the data set on HeLa cells [2] (48 h induction, half (1S) or most (1N) of the cells) is on record as 10^4–10^5; in the data set on HeLa cells [2] (setting [6]) it was 10^5–10^6. In addition, the IC50 with A549 cells stood at 5.33 ± 0.52 µM; in the data set on BGC-823 cells, 1.25 ± 0.13 µM; in the data set on HeLa cells [1], 3.85 ± 0.21 µM. Besides, the “apoptotic pathways activated (BimEL, caspase-9, -8, -3, PARP)” value in the data set with HeLa cells [3] is on record as “only stimulated the mitochondrial apoptotic pathway”. The G2/M phase arrest entry in the data set with HeLa cells [4] is “did not induce the G2/M phase arrest”. In addition, in the data set on HeLa cells [4], the “percentage of G2/M phase cells” value is recorded as “about 80%”. In addition, the “percentage of G2/M phase cells (maximum)” value with HeLa cells [4] is given as 80-90%. Moreover, the half-maximal inhibitory concentration (IC50) at 48 h in data set [5] worked out at 21.2 ± 2.16 µM.
Turning to `COc1cc([C@@H]2c3cc4c(cc3[C@@H](Sc3nc[nH]n3)[C@H]3COC(=O)[C@H]23)OCO4)cc(OC)c1OC` [Compound 1S, 4β-S-(1,3,4-trizole-2)-4-deoxy-podophyllotoxin], the “fluorescence intensity of ROS” value in the data set on HeLa cells [2] (setting [6]) is listed as 10^5–10^6. For the same compound, the “amount of ROS (fluorescence intensity × count of cells) improved compared with Compound 1N” value in the data set on HeLa cells [2] (48 h) is 4.8 times. Also, the “IC50 fold difference vs Compound 1N” value in the data set on A549 cells (A549 cells) is approximately 6 times. In addition, the “IC50 fold difference vs Compound 1N” value in the data set with BGC-823 cells (BGC-823 cells) is approximately 3 times. In the data set on BGC-823 cells, the concentration for half-maximal inhibition (IC50) is 0.34 ± 0.02 µM. Further, in the data set on HeLa cells [3], the “apoptotic pathways activated (BimEL, caspase-9, -8, -3, PARP)” value was “activated the mitochondrial and the death receptor apoptotic pathways”. Further, in the data set with HeLa cells [4], the G2/M phase arrest result was “did not induce the G2/M phase arrest”, the “percentage of G2/M phase cells” value is “about 80%” and the “percentage of G2/M phase cells (maximum)” value was 80-90%. Moreover, in the data set with HeLa cells [1], the “IC50 fold difference vs the corresponding C-NH compound (1N or 1′N)” value is “about 29 times” and the IC50 stood at 0.17 ± 0.02 µM. In data set [5], the IC50 at 48 h was found to be 56.1 ± 3.54 µM.
On to `COc1cc([C@@H]2c3cc4c(cc3[C@@H](Nc3nc[nH]n3)[C@H]3COC(=O)[C@H]23)OCO4)cc(OC)c1O` [Compound 1′N, 4β-NH-(1,2,4-trizole-3)-4-deoxy-4′-demethyl-podophyllotoxin], for which the values for the IC50 in the data set with A549 cells, in the data set on BGC-823 cells and with HeLa cells [1] were 4.22 ± 0.43 µM, 15.6 ± 0.41 µM and 4.36 ± 0.42 µM, respectively. Moreover, the “activation of ATM, ATR, caspase-8, 9 and 3” value in the data set with HeLa cells [3] is “significantly weaker signal”. In addition, the half-maximal inhibitory concentration (IC50) at 48 h in data set [5] was found to be 38.6 ± 2.52 µM.
Turning to `COc1cc([C@@H]2c3cc4c(cc3[C@@H](Sc3nc[nH]n3)[C@H]3COC(=O)[C@H]23)OCO4)cc(OC)c1O` [Compound 1′S, 4β-S-(1,3,4-trizole-2)-4-deoxy-4′-demethylepipodophyllotoxin], the IC50 in the data set with A549 cells worked out at 3.85 ± 0.38 µM; in the data set with BGC-823 cells it was 8.38 ± 0.53 µM; in the data set with HeLa cells [1] it was 0.32 ± 0.03 µM. In the data set with HeLa cells [3], the “activation of ATM, ATR, caspase-8, 9 and 3” value is reported as “activation of all these proteins”. Besides, in the data set with HeLa cells [1], the “IC50 fold difference vs the corresponding C-NH compound (1N or 1′N)” value was 16 times. Further, the “inhibition of catalytic activity of Topo II (kDNA decatenation)” value against Topoisomerase II was “nearly inhibited”. The IC50 at 48 h in data set [5] was 43.2 ± 1.66 µM.
